For data set [1], the system named is Rat spinal motor neurones. As to the kind of experiment: Neuronal survival and neurite outgrowth in spinal motor neurones. The class given is cell-based. Conditions: 3 days. Here is the method:
Rat spinal motor neurones were prepared according to a previously described method (Martinou et al, Neuron, 8, 737-744, 1992). Following 3 days of culturing with sarsasapogenin, smilagenin, vehicle (DMSO, 0.25%), Xaliproden, or BDNF, spinal cord motor neurones were washed twice in PBS, fixed in a cold solution of alcohol (95%) and acetic acid (5%) for 5 min and then rinsed 3 times in PBS. Neurones were stained using a monoclonal antibody anti β-tubulin and an anti mouse Immunoglobulin G. These antibodies stained neurone cell bodies (quantifying the neuroprotective effect) and neurites (quantifying the neurotrophic effect). The cell nuclei were stained by a fluorescent marker. After 1 h of incubation, cells were washed 3 times in PBS. […] A series of pictures were taken using a camera controlled by computer software. All the images were taken under the same conditions. Analyses of the number of cells labelled with anti β-tubulin antibodies and of the total number of cells (number of stained nuclei) were performed using LUCIA 6.0 software.

Data set [2] deals with pmn mice. Conditions: cited from earlier work.
Data set [3] relates to Rat sensory neurones. In words: Neuronal survival in sensory neurones. It counts as cell-based, Wistar rat. Conditions: 0.2 nM, 2 days. Here is the method: Rat sensory neurones were obtained from Wistar rat embryos on the 15th day of gestation. Cells were cultured at 37° C. in 5% CO2/95% air atmosphere. Following 2 days of culturing with sarsasapogenin, smilagenin, vehicle (DMSO, 0.25%) or NGF, sensory neurones were rinsed twice with PBS and fixed in paraformaldehyde (4%) in PBS for 30 min at 4° C. Cells were permeabilised with Triton X-100 (0.1%) and non-specific sites were saturated using foetal bovine serum. Prior to staining, cells were incubated for 2 h at room temperature with a mixture of primary antibodies: anti-neurofilament 68 and 200 in PBS containing foetal bovine serum 5%. Prior to washing, slides were demounted and the cells were washed twice with PBS for 5 min, placed in a dark room for 1 h and incubated with a secondary antibody: anti-mouse coupled with cyanine 3 (Cy3; 1/1600) and an anti-rabbit coupled with fluoroisothiocyanate (FITC; 1/200) in PBS containing foetal bovine serum (5%). Slides were washed twice with PBS for 5 min and mounted on coverslips using Mowiol, an antioxidative solution (9% w/v) in glycerol (22%) buffered with Tris/HCl ([…]; pH 8.5). Slides were left overnight at room temperature to harden and stored in light protected conditions. Slides were viewed using a DAPI/FITC/Cy3 triple filter microscope with a ×20 objective. A series of photographs per well were taken at random using a digital camera.

Data set [4] concerns Rat cortical neurones. As to the kind of experiment: Neuritogenesis in cortical neurones. It counts as cell-based. The note with it: 3 nM, 24 h; for Neurones displaying neurites (%): control 39.35 ± 2.06. The procedure: Rat cortical neurones were cultured by modification of a previously described method (Singer, et al., Neuroscience Letters, 1996, 212, pp. 13-16). Cells were cultured with sarsasapogenin, smilagenin, vehicle (DMSO 0.25%), GDNF, BDNF or NGF for 24 h. For each group, 15 pictures showing neurones displaying neurites were selected at random in each field, and for each neurone the longest neurite was measured. The neurite number was measured by counting the number of neurones displaying neurites, the number of neurones not displaying neurites and the number of total neurones in each field. Six fields per well were examined.
The results are shown in Table 15 below, expressed as the number of neurones with neurites per field as a percentage of the total number of neurones per field.

In data set [5] the test system is Rat dopaminergic neurones. As to the kind of experiment: Pre-treatment against MPP+-induced loss of dopaminergic neurones. It counts as cell-based. The note with it: 30 nM, 24 h before and during MPP+ 2 μM 48 h. Here is the method: Rat dopaminergic neurones were cultured as previously described (Schinelli et al., Journal of Neurochemistry, 1988, 50, pp. 1900-1907). On day 5, the cultures were washed and placed in fresh medium containing test compounds (30 nM), vehicle (DMSO, 0.25%) or a combination of BDNF (1.85 nM) and GDNF (0.17 nM) for 24 h.
Exposure of rat primary dopaminergic neurones to MPP^+ (2 μM, 24 h) causes a significant decrease in the number of dopaminergic neurones compared to the control. On day 6, MPP^+ (2 μM) was added to the cultures in the presence of test compounds, vehicle or a combination of BDNF and GDNF for a further 48 h. MPP^+ induces neuronal death, via inhibition of complex I in the mitochondria and consequent ATP depletion, resulting in the production of free radicals and induction of apoptosis. After the incubation period, the cultures were fixed with paraformaldehyde in PBS (4%). After fixation, the neurones were permeabilised with Triton ×100 (0.05%) for 30 min. The neurones were then incubated with anti-tyrosine hydroxylase (TH) at 37° C. for 2 h. The neurones were washed three times with PBS, and then incubated with goat anti mouse/Cy3 for 2 h at 37° C. The neurones were mounted and examined with the fluorescence microscopy.

For data set [6], the system named is rat primary cortical neurones. In words: Pre-treatment against glutamate-induced damage (LDH) in cortical neurones. It counts as cell-based. The note with it: for Neuronal survival (% of control): 24 h before and 24 h after glutamate 100 μM 10 min; for Toxicity at the plateau of activity: nanomolar concentration, cortical neurones in vitro. Here is the method: Exposure of rat primary cortical neurones to glutamate increases lactate dehydrogenase (LDH) activity measured 24 h after glutamate exposure, indicating significant neuronal damage. Rat cortical neurones were cultured by modification of a method previously described (Singer, et al., Neuroscience Letters, 1996, 212, pp. 13-16). On day 10 of culture, the medium was changed to a serum-free defined medium. On day 12, the cultures were washed and placed for 24 h in fresh medium containing test compound or vehicle (DMSO, 0.25%). On day 13 neurones were exposed to glutamate (100 μM; 10 min) at 37° C. The cultures were then washed with, and placed in, fresh medium supplemented with test compound or vehicle for a further 24 h before LDH was measured. Neuronal damage was assessed by measuring LDH activity in the media at 24 h after glutamate exposure.

Structures can show the parent of a compound that is named as a salt.

With `FC(F)(F)c1cccc(C2=CCN(CCc3ccc4ccccc4c3)CC2)c1` [Xaliproden, 1-[2-(naphth-2-yl)ethyl]-4-(3-trifluoromethylphenyl)-1,2,5,6-tetra-hydropyri-dine hydrochloride, reference compound], the “Neurite outgrowth (% of control)” value in data set [1] (30 nM) is listed as 137.57 ± 11.69 % of control; in data set [1] (100 nM), 137.55 ± 6.76 % of control; in data set [1] (300 nM) it was 131.22 ± 7.93 % of control. For the same molecule, the “Neuronal survival (% of control)” value in data set [1] (30 nM) is recorded as 110.95 ± 2.14 % of control; in data set [1] (100 nM), 111.18 ± 2.85 % of control; in data set [1] (300 nM), 109.47 ± 3.34 % of control. Further, the “Increase of survival time / lifespan of pmn mice” value in data set [2] (literature, CNTF i.p. CNTF-secreting cells, Xaliproden oral from birth, CGP 3466B oral at onset) was around 50%.

Consider NGF: nerve growth factor, for which the “Neuronal survival (% of control)” value in data set [3] was 151.50 ± 7.19 % of control. Also, in data set [4], the “Neurite length (% of control)” value is given as 145.73 ± 5.13 % of control and the “Neurones displaying neurites (%)” value worked out at 52.59 ± 2.43 %.

Turning to `C[C@@H]1CC[C@@]2(OC1)O[C@H]1C[C@H]3[C@@H]4CC[C@@H]5C[C@H](O)CC[C@]5(C)[C@H]4CC[C@]3(C)[C@H]1[C@@H]2C` [epismilagenin], the “Neuronal survival (% of control)” value in data set [5] is given as 115.12 ± 4.73 % of control; in data set [6] (3 nM) it was 82.49 ± 3.93 % of control; in data set [6] (10 nM), 78.57 ± 2.15 % of control; in data set [6] (30 nM), 81.76 ± 2.09 % of control; in data set [6] (100 nM), 78.39 ± 1.75 % of control; in data set [6] (300 nM) it was 78.86 ± 1.80 % of control. The “Toxicity at the plateau of activity” value in data set [6] was “without causing any toxicity”.

In the case of `C[C@H]1CC[C@@]2(OC1)O[C@H]1C[C@H]3[C@@H]4CC[C@@H]5C[C@H](O)CC[C@]5(C)[C@H]4CC[C@]3(C)[C@H]1[C@@H]2C` [episarsasapogenin], the “Neuronal survival (% of control)” value in data set [5] is listed as 95.01 ± 4.52 % of control; in data set [6] (1 nM), 84.79 ± 2.40 % of control; in data set [6] (3 nM), 80.39 ± 5.18 % of control; in data set [6] (10 nM), 83.80 ± 4.18 % of control; in data set [6] (30 nM), 87.17 ± 2.51 % of control; in data set [6] (100 nM), 86.42 ± 2.95 % of control. Moreover, the “Toxicity at the plateau of activity” value in data set [6] is recorded as “without causing any toxicity”.

B1: GDNF: glial-derived neurotrophic factor (protein, UniProt P39905 78-211, looked up)
Glial cell line-derived …: SPDKQMAVLPRRERNRQAAAANPENSRGKGRRGQRGKNRGCVLTAIHLNVTDLGLGYETKEELIFRYCSGSCDAAETTYDKILKNLSRNRRLVSDKVGQACCRPIAFDDDLSFLDDNLVYHILRKHSAKRCGCI
As to B1, in data set [4], the “Neurite length (% of control)” value was 125.30 ± 4.18 % of control and the “Neurones displaying neurites (%)” value was found to be 55.72 ± 1.98 %. The “Motor neurone survival and disease course in pmn mice” value in data set [2] (literature (Sagot et al. 1996)) is given as “improved the motor neurone survival but did not slow down the disease”.
